What was measured:
[1] = Pilot human study of saliva flow rate (Parafilm chewed for 2 minutes, saliva weighed); type: in vivo; details: 0.1 mg Uritos; single subject
Procedure: In this study, the effect of imidafenacin (Uritos®), pilocarpine, the combination of the two, and placebo was measured in separate, yet identical, studies in a single individual.
The following protocol was for a pilot human study to evaluate the extent of saliva flow rate following the administration of 0.1 mg Uritos® tablet and 5 or 10 mg pilocarpine HCl tablet after about 0.5 or 3 hrs from imidafenacin administration. The subject was a healthy, person. The subject performed the following: • 1. Fast the night before. • 2. No coffee or soda 8 hrs prior to taking the first dose. • 3. Record time voiding and measure urine if possible. • 4. Record extent of dryness of the mouth (Very dry, dry, and not dry). • 5. Record any adverse event. • 6. Chew a 1″×1″ piece of Parafilm (American National Can (Neenah, Wis. 54956) Bar code No. 7-466676999) over 2 minutes. • 7. Collect wetted Parafilm and saliva into a tared container (pre-weighed container). • 8. Measure the amount of saliva collected. • 9. Plot Saliva collected per 2 min time intervals against time.
The subject fasted overnight, but had 240 mL of water 1 hr prior to dose. The water continued ad lib until 1 hr pre and 1 hr post dose, other than 120 mL with Uritos® and 120 mL with 5 mg Salagen tablet. For lunch, the subject consumed a light sandwich. No coffee, soda, or caffeinated or alcoholic beverages was consumed. […]

[2] = 5 mg of pilocarpine; cited from earlier work

SMILES | Time of maximum dry mouth / maximum saliva depression point after administration [1] | Time of maximum saliva output after administration [2]
Cc1nccn1CCC(C(N)=O)(c1ccccc1)c1ccccc1 [imidafenacin, 4-(2-methyl-1H-imidazol-1-yl)-2,2-diphenylbutanamide] | about 5 hours | –
CC[C@@H]1C(=O)OC[C@@H]1Cc1cncn1C [pilocarpine] | – | about 30 minutes
